28 molecules from patent US20260274895A1, “DE NOVO DESIGNED MEMBRANE-TRAVERSING AND ORALLY BIOAVAILABLE MACROCYCLES” (UNIVERSITY OF WASHINGTON, priority 2022, published 2026) can be followed below.

For this data set the following is noted: for PAMPA_Papp_Avg (apparent permeability): PAMPA. In general terms: In PAMPA a lipid-coated filter parts donor from acceptor wells.

Where a SMILES comes first, the peptide text is derived from it. [ ]: non-standard residue; d: D form. NMeF = CN[C@@H](Cc1ccccc1)C(=O)O; dNMeF = CN[C@H](Cc1ccccc1)C(=O)O; NMeL = CN[C@@H](CC(C)C)C(=O)O; dNMeL = CN[C@H](CC(C)C)C(=O)O; dNMeV = CN[C@@H](C(=O)O)C(C)C; NMeV = CN[C@H](C(=O)O)C(C)C; NMeA = CN[C@@H](C)C(=O)O; dNMeA = CN[C@H](C)C(=O)O; Aib = CC(C)(N)C(=O)O

`CC(C)[C@@H]1C(=O)N[C@@H](Cc2ccccc2)C(=O)N2CCC[C@H]2C(=O)N(C)[C@H](Cc2ccccc2)C(=O)N[C@H](C)C(=O)N2CCC[C@H]2C(=O)N1C` (single isomer, unassigned) [Design D6.8.p2, *faP*vFP]: the “PAMPA_Papp_Avg (apparent permeability)” value turned out to be 1.77 ×10⁻⁶ cm/s.
Regarding `CC(C)C[C@H]1C(=O)N2CCC[C@@H]2C(=O)N[C@@H](Cc2ccccc2)C(=O)N2CCC[C@H]2C(=O)N[C@H](C(C)C)C(=O)N[C@H](Cc2ccccc2)C(=O)N1C` (single isomer, unassigned) [Design D6.9.p2, vf*LpFP], the “PAMPA_Papp_Avg (apparent permeability)” value amounted to 6.77 ×10⁻⁶ cm/s.
On the same count and under the same terms, as for `CC(C)C[C@@H]1C(=O)N(C)[C@@H](CC(C)C)C(=O)N2CCC[C@@H]2C(=O)N[C@H](CC(C)C)C(=O)N[C@H](C)C(=O)N2CCC[C@@H]2C(=O)N2CCC[C@H]2C(=O)N[C@@H](C)C(=O)N[C@H](Cc2ccccc2)C(=O)N[C@H](CC(C)C)C(=O)N[C@@H](C(C)C)C(=O)N1C` (single isomer, unassigned) [Design D11.9.p1, V*l*LplapPAfl], the figure is 0.879 ×10⁻⁶ cm/s.
The same measure, in the same setting: then `CC(C)C[C@@H]1C(=O)N(C)[C@@H](CC(C)C)C(=O)N2CCC[C@@H]2C(=O)N[C@H](CC(C)C)C(=O)N[C@H](C)C(=O)N2CCC[C@@H]2C(=O)N2CCC[C@H]2C(=O)N[C@@H](C)C(=O)N[C@H](Cc2ccccc2)C(=O)N[C@H](CC(C)C)C(=O)N[C@@H](C(C)C)C(=O)N1C` (single isomer, unassigned) [Design D11.9.p2, V*l*LplapPAfl], with 2.09 ×10⁻⁶ cm/s; and `CC[C@@H](C)[C@H]1NC(=O)[C@@H](Cc2ccccc2)NC(=O)[C@@H]2CCCN2C(=O)[C@@H]([C@H](C)CC)NC(=O)[C@@H](Cc2ccccc2)NC(=O)[C@@H]2CCCN2C1=O` [Design D6.1, iPfiPf] (cyclo(P[dF][dI]P[dF][dI])), with 3.34 ×10⁻⁶ cm/s; and `CC[C@@H](C)[C@H]1NC(=O)[C@@H](Cc2ccccc2)N(C)C(=O)[C@@H]2CCCN2C(=O)[C@@H]([C@H](C)CC)NC(=O)[C@@H](Cc2ccccc2)N(C)C(=O)[C@@H]2CCCN2C1=O` [Design D6.2, iP*fiP*f] (cyclo(P[dNMeF][dI]P[dNMeF][dI])), with 12.2 ×10⁻⁶ cm/s.
Same read-out and setting: as for `CC(C)C[C@H]1NC(=O)[C@@H]2CCCN2C(=O)[C@@H]2CCCN2C(=O)[C@@H](C)NC(=O)[C@@H](Cc2ccccc2)NC(=O)[C@H]2CCCN2C1=O` [Design D6.3, pfaPpl] (cyclo(PP[dL][dP][dF][dA])), the figure is 1.99 ×10⁻⁶ cm/s.
For `CC(C)C[C@H]1NC(=O)[C@@H]2CCCN2C(=O)[C@@H]2CCCN2C(=O)[C@@H](C)NC(=O)[C@@H](Cc2ccccc2)N(C)C(=O)[C@H]2CCCN2C1=O` [Design D6.4, p*faPPl] (cyclo(PP[dL][dP][dNMeF][dA])), the “PAMPA_Papp_Avg (apparent permeability)” value was 13.9 ×10⁻⁶ cm/s.
Same read-out and setting: then `CC(C)[C@@H]1NC(=O)[C@@H]2CCCN2C(=O)[C@@H]2CCCN2C(=O)[C@@H](Cc2ccccc2)NC(=O)[C@@H]2CCCN2C(=O)[C@@H](Cc2ccccc2)NC1=O` [Design D6.5, PPVfPf] (cyclo(PPV[dF]P[dF])), with 2.41 ×10⁻⁶ cm/s; and `CC(C)[C@H]1C(=O)N[C@H](Cc2ccccc2)C(=O)N2CCC[C@H]2C(=O)N[C@H](Cc2ccccc2)C(=O)N2CCC[C@H]2C(=O)N2CCC[C@H]2C(=O)N1C` [Design D6.6, PP*VfPf] (cyclo([NMeV][dF]P[dF]PP)), with 3.64 ×10⁻⁶ cm/s.
The same measure, in the same setting: then `CC(C)[C@H]1NC(=O)[C@@H]2CCCN2C(=O)[C@@H](C)NC(=O)[C@@H](Cc2ccccc2)NC(=O)[C@@H]2CCCN2C(=O)[C@H](Cc2ccccc2)NC1=O` [Design D6.7, faPvFP] (cyclo(FP[dF][dA]P[dV])), with 0.424 ×10⁻⁶ cm/s.
Still for that read-out and setting: then `CC(C)C[C@H]1C(=O)N2CCC[C@@H]2C(=O)N[C@@H](Cc2ccccc2)C(=O)N2CCC[C@H]2C(=O)N(C)[C@H](C(C)C)C(=O)N[C@H](Cc2ccccc2)C(=O)N1C` [Design D6.10, *vf*LpFP] (cyclo(FP[dNMeV][dF][NMeL][dP])), with 11.6 ×10⁻⁶ cm/s; and `CC[C@H](C)[C@@H]1NC(=O)[C@H]2CCCN2C(=O)[C@@H]2CCCN2C(=O)[C@H](CC(C)C)NC(=O)[C@@H](C(C)C)NC(=O)[C@@H](CC(C)C)N(C)C(=O)[C@@H]2CCCN2C1=O` [Design D7.1, P*lvLPpI] (cyclo(IP[dNMeL][dV]LP[dP])), with 2.93 ×10⁻⁶ cm/s.
With `CC(C)C[C@@H]1NC(=O)[C@@H](CC(C)C)NC(=O)[C@H]2CCCN2C(=O)[C@@H]2CCCN2C(=O)[C@@H](CC(C)C)NC(=O)[C@@H](CC(C)C)N(C)C(=O)[C@@H]2CCCN2C1=O` [Design D7.5, LP*llPpl] (cyclo(LP[dNMeL][dL]P[dP][dL])), the “PAMPA_Papp_Avg (apparent permeability)” value came to 6.64 ×10⁻⁶ cm/s.
Same read-out and setting: then `CC(C)C[C@@H]1NC(=O)[C@@H]2CCCN2C(=O)[C@H]2CCCN2C(=O)[C@H](CC(C)C)NC(=O)[C@H](C)N(C)C(=O)[C@H]2CCCN2C(=O)[C@@H](CC(C)C)NC1=O` [Design D7.6, lp*ALpPL] (cyclo(L[dL][dP][NMeA]L[dP]P)), with 3.62 ×10⁻⁶ cm/s; and `CC[C@H](C)[C@@H]1NC(=O)[C@H](Cc2ccccc2)N(C)C(=O)[C@H]2CCCN2C(=O)[C@H]([C@@H](C)CC)NC(=O)[C@H](C(C)C)NC(=O)[C@@H](C)NC(=O)[C@H]2CCCN2C1=O` [Design D7.9, VIp*FIpa] (cyclo(I[dP][NMeF]I[dP][dA]V)), with 7.09 ×10⁻⁶ cm/s.
Turning to `CC(C)C[C@@H]1NC(=O)[C@@H](CC(C)C)NC(=O)[C@H]2CCCN2C(=O)[C@H](CC(C)C)NC(=O)[C@@H](CC(C)C)NC(=O)[C@H](CC(C)C)NC(=O)[C@@H]2CCCN2C(=O)[C@@H](C)NC1=O` [Design D8.1, lLplLaPL] (cyclo(L[dA]PL[dL]L[dP][dL])), the “membrane permeability in PAMPA (in words)” value is “most permeable 8 residue design in PAMPA” and the “PAMPA_Papp_Avg (apparent permeability)” value was determined as 6.94 ×10⁻⁶ cm/s.
Turning to `CC[C@@H](C)[C@H]1NC(=O)[C@@H](CC(C)C)NC(=O)C(C)(C)NC(=O)[C@@H]2CCCN2C(=O)[C@@H]([C@H](C)CC)NC(=O)[C@@H](CC(C)C)NC(=O)C(C)(C)NC(=O)[C@@H]2CCCN2C1=O` [Design D8.2, PBliPBLi] (cyclo([Aib][dL][dI]P[Aib][dL][dI]P)), the “PAMPA_Papp_Avg (apparent permeability)” value is 7.49 ×10⁻⁶ cm/s.
The same measure, in the same setting: then `CC(C)C[C@@H]1NC(=O)[C@H]2CCCN2C(=O)[C@@H]2CCCN2C(=O)[C@H](CC(C)C)NC(=O)[C@@H](CC(C)C)NC(=O)[C@@H](C)N(C)C(=O)[C@@H](C)N(C)C(=O)[C@@H](C(C)C)NC1=O` [Design D8.6, LPpLv*a*al] (cyclo(LP[dP]L[dV][dNMeA][dNMeA][dL])), with 3.35 ×10⁻⁶ cm/s; and `CC[C@@H](C)[C@H]1NC(=O)[C@@H](CC(C)C)N(C)C(=O)[C@@H]2CCCN2C(=O)[C@@H]([C@H](C)CC)NC(=O)[C@@H](CC(C)C)NC(=O)[C@@H](CC(C)C)N(C)C(=O)[C@@H]2CCCN2C(=O)[C@@H](C(C)C)NC1=O` [Design D8.8, P*lliP*liv] (cyclo(P[dNMeL][dI][dV]P[dNMeL][dL][dI])), with 5.9 ×10⁻⁶ cm/s; and `CC(C)C[C@@H]1C(=O)N[C@H](CC(C)C)C(=O)N2CCC[C@@H]2C(=O)N2CCC[C@@H]2C(=O)N(C)[C@@H](C)C(=O)N[C@H](Cc2ccccc2)C(=O)N[C@@H](C)C(=O)N(C)[C@@H](CC(C)C)C(=O)N1C` [Design D8.10, pp*AfA*L*ll] (cyclo(A[NMeL][dNMeL][dL][dP][dP][NMeA][dF])), with 1.23 ×10⁻⁶ cm/s.
For `CC[C@H](C)[C@@H]1NC(=O)[C@@H](C(C)C)NC(=O)[C@H](CC(C)C)N(C)C(=O)[C@H]2CCCN2C(=O)[C@H]2CCCN2C(=O)[C@H](C(C)C)NC(=O)[C@@H](CC(C)C)NC(=O)[C@H]2CCCN2C1=O` [Design D8.16, plVpp*LvI] (cyclo(I[dP][dL]V[dP][dP][NMeL][dV])), the “PAMPA_Papp_Avg (apparent permeability)” value worked out at 2.16 ×10⁻⁶ cm/s.
The same measure, in the same setting: as for `CC[C@@H](C)[C@H]1NC(=O)[C@@H]2CCCN2C(=O)[C@@H](CC(C)C)N(C)C(=O)[C@@H](C(C)C)NC(=O)[C@@H]2CCCN2C(=O)[C@@H](CC(C)C)N(C)C(=O)[C@H](C)N(C)C(=O)[C@@H](C)NC1=O` [Design D8.18, ia*A*lPv*lP] (cyclo([NMeA][dNMeL]P[dV][dNMeL]P[dI][dA])), the figure is 1.04 ×10⁻⁶ cm/s.
Turning to `CC(C)C[C@@H]1C(=O)N(C)[C@H](Cc2ccccc2)C(=O)N(C)[C@@H](CC(C)C)C(=O)N[C@H](C(C)C)C(=O)N[C@H](C)C(=O)N2CCC[C@@H]2C(=O)N2CCC[C@H]2C(=O)N[C@H](C)C(=O)N1C` [Design D8.20, Pa*l*f*Lvap] (cyclo([dA][dNMeL][dNMeF][NMeL][dV][dA][dP]P)), the “PAMPA_Papp_Avg (apparent permeability)” value was 1.08 ×10⁻⁶ cm/s.
Regarding `CC(C)C[C@@H]1NC(=O)[C@H]2CCCN2C(=O)[C@H](CC(C)C)N(C)C(=O)[C@@H](C(C)C)NC(=O)[C@H](CC(C)C)NC(=O)[C@H]2CCCN2C(=O)[C@H](CC(C)C)N(C)C(=O)[C@@H](C(C)C)NC1=O` [Design D8.21, v*LpLv*LpL] (cyclo(L[dV][NMeL][dP]L[dV][NMeL][dP])), the “membrane permeability in PAMPA (in words)” value is “significant permeability”.
Regarding `CC(C)C[C@@H]1C(=O)N[C@@H](C(C)C)C(=O)N[C@@H](C)C(=O)N2CCC[C@H]2C(=O)N2CCC[C@@H]2C(=O)N[C@@H](C(C)C)C(=O)N[C@@H](C)C(=O)N(C)[C@@H](CC(C)C)C(=O)N1C` [Design D8.22, APpVA*L*lV] (cyclo(A[NMeL][dNMeL]VAP[dP]V)), the “PAMPA_Papp_Avg (apparent permeability)” value is 0.215 ×10⁻⁶ cm/s.
On the same count and under the same terms, then `CC(C)C[C@@H]1C(=O)N(C)[C@H](CC(C)C)C(=O)N[C@H](CC(C)C)C(=O)N[C@@H](C(C)C)C(=O)N2CCC[C@@H]2C(=O)N2CCC[C@H]2C(=O)N[C@H](CC(C)C)C(=O)N[C@@H](C(C)C)C(=O)N1C` [Design D8.23, lV*l*llVpP] (cyclo([dL]V[dNMeL][dNMeL][dL]V[dP]P)), with 1.28 ×10⁻⁶ cm/s.
Same read-out and setting: then `CC(C)C[C@@H]1C(=O)N[C@H](C)C(=O)N(C)[C@H](CC(C)C)C(=O)N2CCC[C@@H]2C(=O)N[C@H](CC(C)C)C(=O)N[C@@H](C)C(=O)N[C@H](CC(C)C)C(=O)N2CCC[C@@H]2C(=O)N1C` [Design D8.25, lp*la*lplA] (cyclo(A[dL][dP][dNMeL][dA][dNMeL][dP][dL])), with 0.824 ×10⁻⁶ cm/s.
